Laboratory results: patent US8106037B2, “Identification and treatment of estrogen responsive prostate tumors” (The Brigham and Women's Hospital, Inc., priority 2007, dated 2012)
Entries after “also recorded” stand apart in the source; their conditions may differ. Read-outs that look alike come from different tables or passages of the source.

Experiments:
[1] = system: TMPRSS2-ERG fusion transcript; assay: TMPRSS2-ERG fusion transcript expression in non-ERβ-overexpressing VCaP cells
Method: (§1) Fusion status was determined by ERG break-apart FISH assay (Pemer, et al., Cancer Res. 66:8337-8341 (2006)) and QPCR (for cases not assessable by FISH). An aliquot of the RNA used for DASL was used for QPCR. cDNA was synthesized as above. TMPRSS2-ERG fusion product was determined using SYBR green assay (Qiagen) with TMPRSS2-ERG_f and TMPRSS2-ERG_r primers (Tomlins, et al., Science 310:644-648 (2005)). RPL13A was used for normalization. For estrogen experiments, cDNA was synthesized using the Omniscript RT kit (Qiagen) and HMBS was used for normalization. Relative quantitation was carried out using the comparative Ct method.
(§2) The prostate cancer cell lines NCI-H660 and VCaP were maintained according to ATCC instructions. The cells were hormone-deprived by culture for three days in their respective phenol red-free media (for NCI-H660 without E2 and hydrocortisone) supplemented with 5% CDT-FBS (Invitrogen). Cells were challenged with hormones or vehicle for 12, 24 or 48 hours.
(§3) Reagents were used at a final concentration of 10^−8M.

[2] = system: NCI-H660 prostate cancer cell line; assay: Cell growth assay (Cell Titer-Glo luminescent assay); format: cell-based; conditions: final concentration 10^−8M, relative cell number 2-12 d
Method: The prostate cancer cell lines NCI-[…] and VCaP were maintained according to ATCC instructions. […] NCI-[…] cells were seeded in a 96-well plate ( 5×10^3 cells/well) and stimulated with hormone or vehicle alone. Relative cell number was determined before (time 0 used for normalization) and after stimulation (2, 3, 6, 8, 10, 12 d) using the Cell Titer-Glo luminescent assay (Promega).

[3] = system: TMPRSS2-ERG fusion transcript; assay: TMPRSS2-ERG fusion transcript expression (QPCR) in NCI-H660 cells
Method: as §1, §2, §3

[4] = system: TMPRSS2-ERG fusion transcript; assay: TMPRSS2-ERG fusion transcript expression in ERβ-overexpressing VCaP cells
Method: as §1, §2, §3
VCaP cells were transiently transfected with ERβ containing plasmid using Lipofectamine2000 (Invitrogen) for 6 h. Transfection medium was removed after 6 h, cells were washed in PBS twice, and phenol red-free DMEM (Cellgro) supplemented with 5% CDT-FBS (Invitrogen) was added. Cells were challenged with hormones or vehicle 48 hours after transfection. NCI-H660 cells were transiently transfected with smart pool siRNA against ERβ (Dharmacon).

[5] = NCI-H660 cells, final concentration 10^−8M, 12, 24 or 48 hours
[6] = ERβ-overexpressing VCaP cells (VCaP-ERβ, ERα negative), final concentration 10^−8M

SMILES	growth of NCI-H660 cells [2]	TMPRSS2-ERG expression [3, 5]	TMPRSS2-ERG fusion transcript expression [4, 6]	TMPRSS2-ERG expression [3]	also measured
N#CC(Cc1ccc(O)cc1)c1ccc(O)cc1 (stereo not drawn) [DPN, diarylpropionitrile]	suppressed growth	suppressed expression of the fusion; also recorded: significantly decreased TMPRSS2-ERG expression			TMPRSS2-ERG fusion transcript expression [1]: down-regulation was not seen; TMPRSS2-ERG fusion transcript expression [4]: down-regulation of the TMPRSS2-ERG fusion transcript
C[C@]12CC[C@@H]3c4ccc(O)cc4CC[C@H]3[C@@H]1CC[C@@H]2O [E2, 17β-estradiol]	significantly inhibited		down-regulation of the TMPRSS2-ERG fusion transcript		TMPRSS2-ERG fusion transcript expression ([1]; non-ERβ-overexpressing VCaP cells, final concentration 10^−8M): down-regulation was not seen
CCCc1c(-c2ccc(O)cc2)nn(-c2ccc(O)cc2)c1-c1ccc(O)cc1 [PPT, propylpyrazole triol]				increased TMPRSS2-ERG expression	
C[C@]12CC[C@@H]3c4ccc(O)cc4C[C@@H](CCCCCCCCC[S+]([O-])CCCC(F)(F)C(F)(F)F)[C@H]3[C@@H]1CC[C@@H]2O (stereo partly drawn) [fulvestrant]		reduced the expression of the fusion transcript			
O=C(c1ccc(OCCN2CCCCC2)cc1)c1c(-c2ccc(O)cc2)sc2cc(O)ccc12 [raloxifene]		up-regulation of TMPRSS2-ERG	remarkable down-regulation of the fusion transcript		
Oc1ccc(/C=C/c2cc(O)cc(O)c2)cc1 [resveretrol]				reduced the expression of the fusion transcript	
